Tests used:
Format in all cases: cell-based
[1] = system: environmental isolate Staphylococcus haemolyticus; test: Microbial challenge test; conditions: spike 10^5-10^6 CFU/ml, room temperature
Excerpt: (§1) A challenge test was initiated to investigate whether the formulation could prevent microorganisms from proliferating. The challenge test consisted of challenging the formulation with a prescribed inoculum of microorganisms. The inoculated formulation was then stored at room temperature and at specified time intervals a sample was withdrawn to count the microorganisms in the sample.

[2] = system: environmental Micrococcus Luteus; test: Full AET challenge test; conditions: spike 10^5-10^6 CFU/ml, room temperature
Excerpt: as §1
(§2) The formulations listed in Table 3 were additionally subjected to a Full AET challenge, with results for the individual formulations are shown in Tables 5-8, below. Additionally, Table 9 below, provides results for a Full AET challenge of a reference formulation containing 0.00 mg/mL S-ketamine hydrochloride, denatonium benzoate (to mimic the taste of the S-ketamine HCl formulation(s)), and adjusted to pH 5.21 with 1N NaOH.

Pseudomonas aeruginosa = test: Microbial challenge test / Full AET challenge test; conditions: spike 10^5-10^6 CFU/ml, room temperature
Excerpt: as §1, §2

Escherichia coli = test: Microbial challenge test / Full AET challenge test; conditions: spike 10^5-10^6 CFU/ml, room temperature
Excerpt: as §1, §2

Staphylococcus aureus = test: Microbial challenge test / Full AET challenge test; conditions: spike 10^5-10^6 CFU/ml, room temperature
Excerpt: as §1, §2

Candida albicans = test: Microbial challenge test / Full AET challenge test; conditions: spike 10^5-10^6 CFU/ml, room temperature
Excerpt: as §1, §2

Aspergillus brasiliensis = test: Microbial challenge test / Full AET challenge test; conditions: spike 10^5-10^6 CFU/ml, 28 days of incubation at room temperature
Excerpt: as §1, §2

For CN[C@]1(c2ccccc2Cl)CCCCC1=O.Cl [S-ketamine hydrochloride, (S)-2-(2-chlorophenyl)-2-(methylamino)cyclohexanone hydrochloride], the “Antimicrobial effect in words (change of the original spike)” value [1] was “strong antimicrobial properties”, the “Antimicrobial effect in words (change of the original spike)” value [2] was “strong antimicrobial properties” and the “Antimicrobial effect in words (change of the original spike)” value (Pseudomonas aeruginosa) was “strong antimicrobial properties”. The “Antimicrobial effect in words (change of the original spike)” value (Escherichia coli) was “strong antimicrobial properties”, the “Antimicrobial effect in words (change of the original spike)” value (Staphylococcus aureus) was “strong antimicrobial properties” and the “Antimicrobial effect in words (change of the original spike)” value (Candida albicans) was “strong antimicrobial properties”. The “Antimicrobial effect in words (change of the original spike)” value (Aspergillus brasiliensis) was “some inhibitory activity”.
